Pest or weed control and chromatographic logP data for 14 compounds are collected here from US8536202B2, “Triazole-substituted anthranilamides as pesticides” (Bayer Cropscience AG, priority 2010, dated 2013).

SMILES strings stand for the structures. Read-outs that look alike come from different tables or passages of the source.

For series [1], the system named is caterpillars of the armyworm (Spodoptera frugiperda). As to the kind of experiment: Spodoptera frugiperda test (SPODFR spray treatment). The format is in vivo. The conditions noted are these: 168 h, read-out: activity in %. The method, boiled down: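 Maize leaf discs sprayed with compound diluted in emulsifier-containing water (acetone/DMF solvent, alkylaryl polyglycol ether emulsifier), dried, then infested with armyworm caterpillars. Kill scored after 7 days as % mortality, 100% = all caterpillars dead, 0% = none.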

Series [2] has as its system larvae of the mustard beetle (Phaedon cochleariae). The series can be described thus: Phaedon test (PHAECO spray treatment). The format is in vivo. The settings on record: 168 h, read-out: activity in %. The method, boiled down:
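Compound dissolved in acetone/dimethylformamide with alkylaryl polyglycol ether emulsifier, then diluted with emulsifier-containing water to test concentration for spray treatment of Phaedon cochleariae larvae. Activity scored after 7 days as % larvae killed (100% = all dead, 0% = none).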

A short description of series [3]: log P determination by HPLC on reversed-phase columns (EEC Directive 79/831 Annex V.A8). The format is physicochemical. The conditions noted are these: pH 2.7. The method, boiled down:
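log P from reversed-phase LC-MS retention at pH 2.7, 0.1% formic acid water/acetonitrile gradient 10–95% acetonitrile. Calibrated against C3–C16 unbranched alkan-2-ones, interpolating linearly between adjacent alkanones.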

The test system of series [4] is green peach aphid (Myzus persicae). The series can be described thus: Myzus test (MYZUPE spray treatment), Use Example 4. The format is in vivo. The settings on record: 144 h, read-out: activity in %. In short, it runs like this: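 Compound was formulated in acetone/dimethylformamide with alkylaryl polyglycol ether emulsifier and diluted in emulsifier-containing water. It was sprayed onto Chinese cabbage leaf discs infested with all stages of Myzus persicae. Mortality (%) was scored after 6 days, where 100% means all aphids killed.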

Setting [5] is: reversed-phase C18 HPLC column, HPLC on reversed-phase columns (C 18), EEC Directive 79/831 Annex V.A8, read-out: logP.
The mark [6] stands for this setting: HPLC on reversed-phase columns (C 18), EEC Directive 79/831 Annex V.A8, read-out: logP.

Consider `Cc1cc(C#N)cc(C(=O)NC(C)C)c1NC(=O)c1cc(Cn2cc(C(F)(F)F)nn2)nn1-c1ncccc1Br` [Example 6], for which the pest or weed control at 100 g/ha in series [1] (100 g/ha, after 7 days) was determined as 100%; in series [2] (100 g/ha, after 7 days), 100%; in series [4] (100 g/ha, after 6 days), 90%. Besides, the chromatographic logP in series [3] (setting [5]) turned out to be 3.11.
Take `Cc1cc(Cl)cc(C(N)=O)c1NC(=O)c1cc(Cn2cc(C(F)(F)C(F)(F)F)nn2)nn1-c1ncccc1Cl` [Example 306]: the pest or weed control at 100 g/ha in series [1] (100 g/ha, after 7 days) was found to be 100%; in series [2] (100 g/ha, after 7 days) it was 100%; in series [4] (100 g/ha, after 6 days) it was 100%. In series [3], this compound gave a chromatographic logP of 2.78.
As to `Cc1cc(Cl)cc(C(=O)NC(C)(C)C)c1NC(=O)c1cc(Cn2cc(C(F)(F)C(F)(F)C(F)(F)F)nn2)nn1-c1ncccc1Cl` [Example 339], the pest or weed control at 100 g/ha in series [1] stood at 100%; in series [2], 100%; in series [4], 90%. In series [3] (setting [6]), the chromatographic logP amounted to 4.21.
Regarding `CCNC(=O)c1cc(C#N)cc(C)c1NC(=O)c1cc(Cn2cc(C(F)(F)F)nn2)nn1-c1ccccc1Cl` [Example 294], the pest or weed control at 100 g/ha in series [1] (100 g/ha, after 7 days) was determined as 100%; in series [2] (100 g/ha, after 7 days) it was 100%; in series [4] (100 g/ha, after 6 days), 100%. For the same compound, the chromatographic logP in series [3] (setting [5]) was 2.92.
With `CSC[C@H](C)NC(=O)c1cc(I)cc(C)c1NC(=O)c1cc(Cn2cc(C(F)(F)C(F)(F)F)nn2)nn1-c1ncccc1Cl` [Example 316], the pest or weed control at 100 g/ha in series [1] (100 g/ha, after 7 days) came out at 100%; in series [2] (100 g/ha, after 7 days), 100%; in series [4] (100 g/ha, after 6 days) it was 100%. The compound further had a chromatographic logP in series [3] of 3.91.
Take `Cc1cc(Cl)cc(C(=O)NC2CC2)c1NC(=O)c1cc(Cn2cc(C(F)(F)C(F)(F)F)nn2)nn1-c1ncccc1Cl` [Example 301]: the pest or weed control at 100 g/ha in series [1] (100 g/ha, after 7 days) was 100%; in series [2] (100 g/ha, after 7 days), 100%; in series [4] (100 g/ha, after 6 days), 90%. The compound further showed a chromatographic logP in series [3] of 3.26.
Regarding `CSC[C@H](C)NC(=O)c1cc(Cl)cc(C)c1NC(=O)c1cc(Cn2cc(C(F)(F)C(F)(F)F)nn2)nn1-c1ncccc1Cl` [Example 307], the pest or weed control at 100 g/ha is 100% in series [1] (100 g/ha, after 7 days); 100% in series [2] (100 g/ha, after 7 days); 100% in series [4] (100 g/ha, after 6 days). For the same compound, the chromatographic logP in series [3] came out at 3.66.
Consider `Cc1cc(C#N)cc(C(=O)NC2CC2)c1NC(=O)c1cc(Cn2ncc(C(F)(F)F)n2)nn1-c1ncccc1Cl` [Example 126], for which the pest or weed control at 100 g/ha in series [1] (100 g/ha, after 7 days) was determined as 83%; in series [2] (100 g/ha, after 7 days), 100%; in series [4] (100 g/ha, after 6 days), 100%. Further, in series [3], the chromatographic logP came out at 2.9.
Regarding `CNC(=O)c1cc(C#N)cc(C)c1NC(=O)c1cc(Cn2nc(C(F)(F)F)c(C(F)(F)F)n2)nn1-c1ncccc1Cl` [Example 414], the pest or weed control at 100 g/ha was 100% in series [1] (100 g/ha, after 7 days); 100% in series [2] (100 g/ha, after 7 days); 100% in series [4] (100 g/ha, after 6 days). Also, the chromatographic logP in series [3] came to 3.43.
In the case of `Cc1cc(I)cc(C(=O)NCC#N)c1NC(=O)c1cc(Cn2cc(C(F)(F)F)nn2)nn1-c1ncccc1Cl` [Example 215], the pest or weed control at 100 g/ha in series [1] (100 g/ha, after 7 days) was 100%; in series [2] (100 g/ha, after 7 days), 100%; in series [4] (100 g/ha, after 6 days) it was 90%. For the same compound, the chromatographic logP in series [3] stood at 2.82.
For `Cc1cc(C#N)cc(C(=O)NC(C)C)c1NC(=O)c1cc(Cn2cc(C(F)(C(F)(F)F)C(F)(F)F)nn2)nn1-c1ncccc1Cl` [Example 219], the pest or weed control at 100 g/ha came out at 100% in series [1] (100 g/ha, after 7 days); 100% in series [2] (100 g/ha, after 7 days); 80% in series [4] (100 g/ha, after 6 days). Moreover, the chromatographic logP in series [3] (setting [5]) turned out to be 3.44.
For the compound `Cc1cc(C#N)cc(C(=O)NC(C)C)c1NC(=O)c1cc(Cn2cc(C(F)(F)C(F)(F)C(F)(F)F)nn2)nn1-c1ncccc1Cl` [Example 329], the pest or weed control at 100 g/ha in series [1], in series [2] and in series [4] was 100% in each case. Further, the chromatographic logP in series [3] (setting [6]) is 3.42.
Consider `Cc1cc(C#N)cc(C(=O)NC2CC2)c1NC(=O)c1cc(Cn2ncc(C(F)(F)F)n2)nn1-c1ccccc1Cl` [Example 289], for which the pest or weed control at 100 g/ha in series [1] (100 g/ha, after 7 days) amounted to 100%; in series [2] (100 g/ha, after 7 days) it was 100%; in series [4] (100 g/ha, after 6 days), 100%. In addition, in series [3] (setting [5]), the chromatographic logP is 3.3.
In the case of `Cc1cc(I)cc(C(N)=O)c1NC(=O)c1cc(Cn2ncc(C(F)(F)F)n2)nn1-c1ncccc1Cl` [Example 156], the pest or weed control at 100 g/ha in series [1] (100 g/ha, after 7 days) amounted to 100%; in series [2] (100 g/ha, after 7 days) it was 100%; in series [4] (100 g/ha, after 6 days), 100%. In series [3], the chromatographic logP came to 2.89.
